Test results: BindingDB's records for doi:10.1016/j.ejmech.2016.05.049 (University of Naples Federico Ii, 2016)
Residues, ends and D or L forms follow the SMILES beside them. *: point of attachment. Cbz = O=C(OCc1ccccc1)*

Assay: Competitive inhibition of post-glutamyl peptide hydrolyzing activity of human 20S proteasome using Cbz-Leu-Leu-Glu-AMC as substrate measured for 10 mins by fluorescence assay

Ki | Compound
8.59 µM | CC(C)CC(NC(=O)C(CO)NC(=O)OCc1ccccc1)C(=O)NC(Cc1ccc(O)cc1)C(N)=O (stereo not drawn) (Cbz-Ser-Leu-Tyr-NH2; configuration not given here)
31.3 µM | COC(=O)[C@H](Cc1ccc(O)cc1)NC(=O)[C@H](CC(C)C)NC(=O)[C@H](CO)NC(=O)OCc1ccccc1 (Cbz-Ser-Leu-Tyr-OMe)
